Kd data for four compounds are collected here from ChEMBL document CHEMBL1132886, “Syntheses and properties of photoactivatable sugar derivatives designed to probe the sugar-binding site of melibiose permease” (Bioorg Med Chem Lett, 2000).

A short description of test [1]: Binding affinity against melibiose permease ofEscherichia coli. Further details: species or system Escherichia coli.
A short description of test [2]: Binding affinity against melibiose permease of Escherichia coli.

Molecules are shown by their SMILES.

Compound `N#[N+]c1ccc(OC2O[C@H](CO)[C@@H](O)[C@H](O)[C@H]2O)cc1` (some centres undefined) yielded a dissociation constant Kd in test [1] of 60000 nM.

On to `[N-]=[N+]=Nc1ccc(OC2O[C@H](CO)[C@@H](O)[C@H](O)[C@H]2O)cc1` (some centres undefined), for which the dissociation constant (Kd) in test [1] stood at 1000 nM.

For the compound `OC[C@H]1OC(Oc2ccc(C3(C(F)(F)F)N=N3)cc2)[C@H](O)[C@@H](O)[C@@H]1O` (some centres undefined), the dissociation constant (Kd) in test [1] is 2000 nM.

Take `O=[N+]([O-])c1ccc(O[C@H]2O[C@H](CO)[C@@H](O)[C@H](O)[C@H]2O)cc1`: in test [2], binding was put at a Kd of 600 nM.
